The supplement of paper PMC10307832

Experiments:
Assay in all cases: relative viability (nuclei count vs DMSO), 5 days (fraction); higher = more cells survive
Erlotinib + Trametinib = compound: C#Cc1cccc(Nc2ncnc3cc(OCCOC)c(OCCOC)cc23)c1 [Erlotinib] + CC(=O)Nc1cccc(-n2c(=O)n(C3CC3)c(=O)c3c(Nc4ccc(I)cc4F)n(C)c(=O)c(C)c32)c1 [Trametinib] (partner 0.02 µM)
Procedure, shortened: (§1)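 Values are medians from duplicate plates. Each reflects relative viability, defined as the nuclei count of treated wells over that of vehicle wells. Lung cancer cell lines in 1536-well plates were pin-tool dosed one day after seeding with one drug alone or with a fixed anchor-drug dose plus five library-drug doses (not always all listed) in √10 steps, then fixed, stained and imaged at 4× after 5 days.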

AT9283 + Navitoclax = compound: O=C(Nc1c[nH]nc1-c1nc2ccc(CN3CCOCC3)cc2[nH]1)NC1CC1 [AT9283] + CC1(C)CCC(c2ccc(Cl)cc2)=C(CN2CCN(c3ccc(C(=O)NS(=O)(=O)c4ccc(N[C@H](CCN5CCOCC5)CSc5ccccc5)c(S(=O)(=O)C(F)(F)F)c4)cc3)CC2)C1 [Navitoclax] (partner 0.5 µM)
Procedure, shortened: as §1

Erlotinib + Lapatinib = compound: C#Cc1cccc(Nc2ncnc3cc(OCCOC)c(OCCOC)cc23)c1 [Erlotinib] + CS(=O)(=O)CCNCc1ccc(-c2ccc3ncnc(Nc4ccc(OCc5cccc(F)c5)c(Cl)c4)c3c2)o1 [Lapatinib] (partner 2 µM)
Procedure, shortened: as §1

Erlotinib + Tozasertib = compound: C#Cc1cccc(Nc2ncnc3cc(OCCOC)c(OCCOC)cc23)c1 [Erlotinib] + Cc1cc(Nc2cc(N3CCN(C)CC3)nc(Sc3ccc(NC(=O)C4CC4)cc3)n2)n[nH]1 [Tozasertib] (partner 0.1 µM)
Procedure, shortened: as §1

Erlotinib + Vorinostat = compound: C#Cc1cccc(Nc2ncnc3cc(OCCOC)c(OCCOC)cc23)c1 [Erlotinib] + O=C(CCCCCCC(=O)Nc1ccccc1)NO [Vorinostat] (partner 1 µM)
Procedure, shortened: as §1

| Cell Line | relative viability (Erlotinib + Trametinib; first compound 0.02 µM) | relative viability (Erlotinib + Trametinib; first compound 0.2 µM) | relative viability (Erlotinib + Trametinib; first compound 0.6325 µM) | relative viability (Erlotinib + Trametinib; first compound 2 µM) | relative viability (AT9283 + Navitoclax; first compound 0.003 µM) | relative viability (AT9283 + Navitoclax; first compound 0.03 µM) | relative viability (AT9283 + Navitoclax; first compound 0.09487 µM) | relative viability (AT9283 + Navitoclax; first compound 0.3 µM) | relative viability (Erlotinib + Lapatinib; first compound 0.02 µM) | relative viability (Erlotinib + Lapatinib; first compound 0.2 µM) | relative viability (Erlotinib + Lapatinib; first compound 0.6325 µM) | relative viability (Erlotinib + Lapatinib; first compound 2 µM) | relative viability (Erlotinib + Tozasertib; first compound 0.02 µM) | relative viability (Erlotinib + Tozasertib; first compound 0.2 µM) | relative viability (Erlotinib + Tozasertib; first compound 0.6325 µM) | relative viability (Erlotinib + Tozasertib; first compound 2 µM) | relative viability (Erlotinib + Vorinostat; first compound 0.02 µM) | relative viability (Erlotinib + Vorinostat; first compound 0.6325 µM) | relative viability (Erlotinib + Vorinostat; first compound 2 µM) | relative viability (Erlotinib + Vorinostat; first compound 0.2 µM) |
| --- | --- | --- | --- | --- | --- | --- | --- | --- | --- | --- | --- | --- | --- | --- | --- | --- | --- | --- | --- | --- |
| 201T | 0.709 | 0.675 | 0.694 | 0.636 | 1.24 | 1.21 | 1.21 | 0.524 | 1.01 | 1.03 | 1.08 | 0.934 | 0.965 | 0.915 | 0.877 | 0.707 | 0.573 | 0.89 | 0.816 | – |
| A549 | – | – | – | – | 1.14 | 0.0945 | 0.0413 | 0.0451 | 0.957 | 0.979 | 1.06 | 0.94 | – | – | – | – | – | – | – | – |
| A-427 | 0.885 | 0.752 | 0.882 | 0.749 | 1.05 | 0.691 | 0.174 | 0.167 | 1.04 | 1.02 | 1.12 | 0.94 | 0.251 | 0.225 | 0.197 | 0.162 | 0.844 | 0.932 | 0.892 | 0.834 |
| ABC-1 | – | – | – | – | – | – | – | – | 1.26 | 1.25 | 1.3 | 0.971 | 0.154 | 0.172 | 0.173 | 0.148 | – | 1.34 | 0.985 | 1.13 |
| BEN | 1.01 | 0.883 | 1.24 | 1.16 | 0.0788 | 0.0854 | 0.0605 | 0.0596 | 0.689 | 0.802 | 1.03 | 0.735 | 0.593 | 0.462 | 0.468 | 0.436 | 0.66 | 0.637 | 0.547 | 0.523 |
| CAL-12T | 0.334 | 0.279 | 0.31 | 0.173 | 1.47 | 0.879 | 0.261 | 0.21 | 0.815 | 0.704 | 0.68 | 0.543 | 0.357 | 0.226 | 0.188 | 0.153 | 0.763 | 0.359 | 0.313 | 0.54 |
| COR-L23 | 0.67 | 0.636 | 0.617 | 0.545 | 0.964 | 0.301 | 0.123 | 0.126 | 0.944 | 0.979 | 1.16 | 0.96 | 0.253 | 0.202 | 0.163 | 0.114 | 0.583 | 0.489 | 0.362 | 0.423 |
| COR-L 105 | 0.455 | 0.336 | 0.415 | 0.362 | 0.83 | 0.27 | 0.293 | 0.281 | 0.368 | 0.322 | 0.335 | 0.36 | 0.335 | 0.305 | 0.217 | 0.227 | 0.776 | 0.425 | 0.377 | 0.564 |
| Calu-6 | – | – | – | – | 0.794 | 0.113 | 0.134 | 0.102 | 1.12 | – | 1.1 | 0.979 | – | – | – | – | – | – | – | – |
| ChaGo-K-1 | 0.886 | 0.874 | 0.909 | 0.832 | 0.694 | 0.746 | 0.244 | 0.299 | – | – | – | – | 0.214 | 0.186 | 0.179 | 0.185 | 0.784 | 0.82 | 0.74 | 0.721 |
| EBC-1 | – | – | – | – | 0.461 | 0.203 | 0.145 | 0.17 | 0.23 | 0.19 | 0.221 | 0.22 | – | – | – | – | – | – | – | – |
| EKVX | 0.367 | 0.2 | 0.191 | 0.162 | 0.697 | 0.861 | 0.435 | 0.264 | 0.206 | 0.178 | 0.192 | 0.186 | 0.329 | 0.226 | 0.212 | 0.111 | 0.716 | 0.323 | 0.259 | 0.372 |
| EMC-BAC-2 | – | 0.765 | 0.901 | 0.739 | 1.23 | 0.785 | 0.199 | 0.25 | 0.934 | 0.828 | – | 0.822 | 0.279 | 0.345 | 0.32 | 0.25 | – | 0.524 | 0.446 | 0.543 |
| EPLC-272H | 0.322 | 0.282 | 0.282 | 0.207 | 0.984 | 1.05 | 1.1 | 0.138 | 0.923 | 1.1 | 1.24 | 0.763 | 0.22 | 0.291 | 0.235 | 0.183 | 0.459 | 0.396 | 0.292 | 0.411 |
| H3255 | 0.632 | 0.412 | 0.326 | 0.214 | 0.513 | 0.499 | 0.216 | 0.105 | 0.323 | 0.259 | 0.253 | – | – | 0.564 | 0.211 | 0.142 | 0.705 | 0.628 | 0.206 | 0.817 |
| HARA | 0.709 | 0.39 | 0.406 | 0.291 | 1.1 | 0.129 | 0.0715 | 0.101 | 0.857 | 0.902 | 0.976 | 0.688 | 0.0745 | 0.0897 | 0.0791 | 0.0606 | 0.643 | 0.402 | 0.445 | 0.598 |
